In PMC12227560, “Total synthesis of a sorrentanone ester library and evaluation of its antimicrobial potential” (Scientific Reports, 2025):

Assays:
[1] = tested on: C. albicans ATCC10231 biofilm formation; experiment: Anti-biofilm activity assessment (crystal violet); format: cell-based, Candida albicans; conditions: for inhibition of biofilm formation (in words): data not shown
Procedure: Anti-biofilm activity assessment: The effect of compounds on biofilms formation was determined on C. albicans ATCC 10231 strain. Anti -biofilm assays were conducted using a previously reported methodology with small modifica tions.9 The assay was carried out in 96 - well round-bottom polystyrene microtiter plates. Cells wer e harvested from overnight grown cultures, washed twice with sterile phosphate -buffered saline (PBS; Sigma -Aldrich, Munich, Germany), and resuspended in RPMI 1640 medium (Sigma -Aldrich) containing 2% glucose (w/v) at a concentration of 1 × 10^5 CFU/mL. C. albicans suspension was incubated with 0.5 MIC, 1 MIC, and 2 MIC compounds concentration in 200.0 μL final volume per well for 48 h at 37 °C to allow biofilm formation. Biofilm growth was analyzed by crystal violet (CV) staining of adherent cells and the a bsorbance at 590.0 nm was read on a Tecan Infinite 200 Pro multiplate reader (Tecan Group Ltd., Männedorf, Switzerland). […]

[2] = tested on: ergosterol in C. albicans; experiment: Ergosterol biosynthesis assay; format: cell-based, Candida albicans; conditions: 0.5 MIC; Candida cells; UV profile
Procedure: Ergosterol biosynthesis assay: Ergosterol levels were measured according to the published procedure with some minor modifications. 10 Briefly, a sing le C. albicans colony from an overnight Sabouraud dextrose agar plate was used to inoculate 50 ml of Sabouraud dextrose broth containing 0.5 MIC concentrated compounds. Incubation was performed for 18 h at 37 °C on the rotary shaker at 180 rpm. Cells were harvested by centrifugation at 3000 rpm for 5 min and washed once with sterile distilled water. The net wet weight of the cell pellet was determined. Three milliliters of 25% alcoholic potassium hydroxide solution (25 g of KOH and 35 ml of sterile distill ed water, brought to 100 ml with 100% ethanol), was added to each pellet and vortex mixed for 1 min and incubated in an 85 °C water bath for 1 h. Tubes were cooled to room temperature and extraction of sterols was done with the addition of a mixture of 1 ml of sterile distilled water and 3 ml of n-heptane followed by vigorous vortex mixing for 3 min. The heptane layer was used for spectrophotometrically measuring ergosterol concentrations by scanning absorbance between 240 nm and 300 nm using Ultrospec 3300pro 573 (Amer sham Biosciences, Amersham, UK).

[3] = tested on: human lung fibroblast cell line (MRC-5); experiment: Cytotoxicity evaluation by MTT assay; format: cell-based; conditions: for cell survival: MRC-5 cells, 10 µg/mL, 48 h
Text: 3. Bioactivity and Toxicity Assays
Antimicrobial assay: According to the standard broth micro-dilution assays, following the Standards of European Committee on Antimicrobial Susceptibility Testing (v 7.3.1: Method for the determination of broth dilution minimum inhibitory concentrations of antifungal agents for yeasts) for Candida spp., and according to the standard broth micro-dilution assays, recommended by the National Committee for Clinical Laboratory Standards (M07-A8) for bacteria MIC values of compounds were determinate. Compounds were dissolved in DMSO at a concentration of 50 mg/mL, and the highest tested concentration was 250 µg/mL. The inoculums were 1x10^5 colony forming units (CFU/mL), for Candida species, and bacteria species, 5x10^5 colony forming units (CFU/mL). The MIC value was recorded as the lowest concentration that inhibited the growth after 24 h at 37 °C. Additionally, 5 µL from each well of 96 well plates was transferred to Luria Agar (LA) plates for bacteria and Sabouraud agar (SAB) plates for Candida spp. and incubated for an additional 24 h at 37 °C, to determine MBC (Minimum bactericidal/fungicidal concentration) values. In Table 1. Are labeled compounds showing a difference in MBC and previously determined MIC values.
Cytotoxicity evaluation: Antiproliferative activity was tested by MTT assay (3-(4,5-dimethylthiazol-2-yl)-2,5-diphenyltetrazoliumbromide) on a human lung fibroblast cell line (MRC-5; ATCC collection). Pre-grown (24 h) cell monolayers (1x10^4 cells per well) in RPMI 1640 medium supplemented with 100 μg/mL streptomycin, 100 U/mL penicillin, and 10% (v/v) FBS (all from Sigma, Munich, Germany) containing the tested compounds at concentrations ranging from 5 to 20 μg/mL were incubated in a humidified atmosphere of 95% air and 5% CO2 at 37 °C for 48 h. The cell viability (extent of MTT reduction) was measured spectrophotometrically at 540 nm using the Epoch 2000 multiplate reader, and the cell survival was expressed as a percentage of the control (untreated cells). Cytotoxicity was expressed as the concentration of the compound inhibiting cell growth by 50% (IC 50). […]

Structure (SMILES) | inhibition of biofilm formation (in words) [1] | reduction of total amount of ergosterol (in words) [2] | cell survival [3] | inhibition of biofilm formation ([1]; sub-inhibitory concentration (0.5 times MIC), 48 h) | selectivity index (SI) ([3]; cytotoxicity versus antibiotic activity, calculation not described)
CC1=C(O)C(=O)C(C)=C(C(=O)OCCCC(C)C)C1=O [compound 36] | displayed inhibition of biofilm formation | most potent in reducing the total amount of ergosterol | over 60% | – | –
CC1=C(O)C(=O)C(C)=C(C(=O)OCc2ccccc2)C1=O [compound 41] | displayed inhibition of biofilm formation | most potent in reducing the total amount of ergosterol | over 60% | 60–77% | 0.77
